Measured values: patent publication US11725036B2, “Modified lipidated relaxin B chain peptides and their therapeutic use” (Sanofi, priority 2018, dated 2023)
Starred links: 1 amine or outer side, 2 acyl side, 3 side chain; linkers in the order of their positions; H or OH if unused. Non-standard residues stand in square brackets, D forms with d. Residues, ends and D or L forms follow the SMILES beside them. Groups on a side chain read outwards from the residue. *: point of attachment. X1 = CCCCCCCCCCCCCCCC(=O)N[C@@H](CCC(=O)N[C@@H](CCC(=O)N[C@@H](CCC(=O)NCCCOCCOCCOCCCNC(=O)CCC(=O)NCCCOCCOCCOCCCNC(=O)CCC(=O)NCCCOCCOCCOCCCN*)C(=O)O)C(=O)O)C(=O)O; Suc = O=C(CCC(=O)[*:2])[*:1]; Aib = CC(C)(N)C(=O)O

Molecular target: T1, RXFP1 (Homo sapiens, UniProt Q9HBX9)
T1 construct: OVCAR5 cells expressing endogenous RXFP1; endogenous in cells; host or cells: OVCAR5
T1 sequence (Q9HBX9 1-757): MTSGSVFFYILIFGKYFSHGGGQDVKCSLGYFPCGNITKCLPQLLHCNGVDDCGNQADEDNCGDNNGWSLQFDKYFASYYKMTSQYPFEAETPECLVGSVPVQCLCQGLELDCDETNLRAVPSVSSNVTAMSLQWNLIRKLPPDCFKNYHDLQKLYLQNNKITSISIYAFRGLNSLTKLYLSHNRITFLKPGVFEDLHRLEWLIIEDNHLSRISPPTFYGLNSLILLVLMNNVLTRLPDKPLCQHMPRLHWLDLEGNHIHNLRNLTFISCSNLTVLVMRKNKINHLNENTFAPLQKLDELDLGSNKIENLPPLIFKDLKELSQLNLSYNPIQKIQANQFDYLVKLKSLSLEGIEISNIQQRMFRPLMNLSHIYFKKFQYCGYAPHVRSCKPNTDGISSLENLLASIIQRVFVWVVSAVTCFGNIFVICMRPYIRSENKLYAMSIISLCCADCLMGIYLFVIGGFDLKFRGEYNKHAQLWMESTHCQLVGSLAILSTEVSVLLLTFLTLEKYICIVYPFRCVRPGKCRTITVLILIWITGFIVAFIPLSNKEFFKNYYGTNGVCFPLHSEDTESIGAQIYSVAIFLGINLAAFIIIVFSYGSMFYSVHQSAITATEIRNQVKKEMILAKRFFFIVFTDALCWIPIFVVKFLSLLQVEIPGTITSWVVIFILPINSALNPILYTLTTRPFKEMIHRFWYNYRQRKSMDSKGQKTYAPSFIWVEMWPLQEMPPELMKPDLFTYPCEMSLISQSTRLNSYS
Test: OVCAR5 cAMP assay (HTRF)
Format: cell-based
Conditions: for EC50: OVCAR 5 cells expressing endogenous RXFP1, cAMP readout; for Emax: OVCAR 5 cells, maximal cAMP relative to H2-relaxin
In short: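 Endogenous RXFP1 in OVCAR5 cells, pretreated 40 min at 37° C with 1 mM IBMX, then exposed to increasing peptide concentrations in serum-free medium for 30 min at 37° C. cAMP read by HTRF; EC50 by variable-slope sigmoidal fit, Emax as % of H2-relaxin maximal cAMP in same run.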

Row | Compound | EC50 | Emax
1 | CCCCCCCCCCCCCCCC(=O)N[C@@H](CCC(=O)N[C@@H](CCC(=O)N[C@@H](CCC(=O)NCCCOCCOCCOCCCNC(=O)CCC(=O)NCCCOCCOCCOCCCNC(=O)CCC(=O)NCCCOCCOCCOCCCNC(=O)CCC(=O)NCCCC[C@H](NC(=O)CNC(=O)[C@H](CCC(=O)O)NC(=O)C(C)(C)NC(=O)C(C)(C)NC(=O)[C@@H](NC(=O)[C@H](CCCCNC(C)=O)NC(=O)[C@H](C)NC(=O)[C@H](CCCNC(=N)N)NC(=O)[C@@H](NC(=O)[C@H](CCCCN)NC(=O)[C@H](CCC(=O)O)NC(=O)[C@H](CCCNC(=N)N)NC(=O)CNC(=O)[C@H](CCC(=O)O)NC(=O)[C@H](CC(C)C)NC(C)=O)C(C)C)[C@@H](C)CC)C(=O)N[C@@H](CO)C(=O)N[C@@H](CCC(N)=O)C(=O)N[C@@H](Cc1c[nH]c2ccccc12)C(=O)N[C@@H](CO)C(=O)NC(C)(C)C(=O)N[C@@H](CCCNC(=N)N)C(=O)N[C@@H](CCCCN)C(=O)N[C@@H](CCCCNC(C)=O)C(N)=O)C(=O)O)C(=O)O)C(=O)O [compound 63] (Ac-LEGREKVRAK(Ac)I[Aib][Aib]EGK([Suc-X1])SQWS[Aib]RKK(Ac)-NH2) | 1.45 nM | 97%
2 | CCCCCCCCCCCCCCCC(=O)N[C@@H](CCC(=O)N[C@@H](CCC(=O)N[C@@H](CCC(=O)NCCCOCCOCCOCCCNC(=O)CCC(=O)NCCCOCCOCCOCCCNC(=O)CCC(=O)NCCCOCCOCCOCCCNC(=O)CCC(=O)NCCCC[C@H](NC(=O)CNC(=O)[C@H](CCC(=O)O)NC(=O)C(C)(C)NC(=O)C(C)(C)NC(=O)[C@@H](NC(=O)[C@H](CCC(N)=O)NC(=O)[C@H](CCCCNC(C)=O)NC(=O)[C@H](CCCNC(=N)N)NC(=O)[C@@H](NC(=O)[C@H](CCCCN)NC(=O)[C@H](CCC(=O)O)NC(=O)[C@H](CCCNC(=N)N)NC(=O)CNC(=O)[C@H](CCC(=O)O)NC(=O)[C@H](CC(C)C)NC(C)=O)C(C)C)[C@@H](C)CC)C(=O)N[C@@H](CO)C(=O)N[C@H](C(=O)N[C@@H](Cc1c[nH]c2ccccc12)C(=O)N[C@@H](CO)C(=O)NC(C)(C)C(=O)N[C@@H](CCCNC(=N)N)C(=O)N[C@@H](CCCCN)C(=O)N[C@@H](CCCCNC(C)=O)C(N)=O)[C@@H](C)O)C(=O)O)C(=O)O)C(=O)O [compound 65] (Ac-LEGREKVRK(Ac)QI[Aib][Aib]EGK([Suc-X1])STWS[Aib]RKK(Ac)-NH2) | 1.19 nM | 95%
3 | CCCCCCCCCCCCCCCC(=O)N[C@@H](CCC(=O)N[C@@H](CCC(=O)N[C@@H](CCC(=O)NCCCOCCOCCOCCCNC(=O)CCC(=O)NCCCOCCOCCOCCCNC(=O)CCC(=O)NCCCOCCOCCOCCCNC(=O)CCC(=O)NCCCC[C@H](NC(=O)CNC(=O)[C@H](CCC(=O)O)NC(=O)C(C)(C)NC(=O)C(C)(C)NC(=O)[C@@H](NC(=O)[C@H](CCCCNC(C)=O)NC(=O)[C@H](C)NC(=O)[C@H](CCCNC(=N)N)NC(=O)[C@@H](NC(=O)[C@H](CCCCN)NC(=O)[C@H](CCC(=O)O)NC(=O)[C@H](CCCNC(=N)N)NC(=O)CNC(=O)[C@H](CCC(=O)O)NC(=O)[C@H](CC(C)C)NC(C)=O)C(C)C)[C@@H](C)CC)C(=O)N[C@@H](CO)C(=O)N[C@H](C(=O)N[C@@H](Cc1c[nH]c2ccccc12)C(=O)N[C@@H](CCCCNC(C)=O)C(=O)NC(C)(C)C(=O)N[C@@H](CCCNC(=N)N)C(=O)N[C@@H](C)C(=O)N[C@@H](CCCCNC(C)=O)C(N)=O)[C@@H](C)O)C(=O)O)C(=O)O)C(=O)O [compound 66] (Ac-LEGREKVRAK(Ac)I[Aib][Aib]EGK([Suc-X1])STWK(Ac)[Aib]RAK(Ac)-NH2) |  | 93%
4 | CCCCCCCCCCCCCCCC(=O)N[C@@H](CCC(=O)N[C@@H](CCC(=O)N[C@@H](CCC(=O)NCCCOCCOCCOCCCNC(=O)CCC(=O)NCCCOCCOCCOCCCNC(=O)CCC(=O)NCCCOCCOCCOCCCNC(=O)CCC(=O)NCCCC[C@H](NC(=O)CNC(=O)[C@H](CCC(=O)O)NC(=O)C(C)(C)NC(=O)C(C)(C)NC(=O)[C@@H](NC(=O)[C@H](CCCCNC(C)=O)NC(=O)[C@H](C)NC(=O)[C@H](CCCNC(=N)N)NC(=O)[C@@H](NC(=O)[C@H](CCCCN)NC(=O)[C@H](CCC(=O)O)NC(=O)[C@H](CCCNC(=N)N)NC(=O)CNC(=O)[C@H](CCC(=O)O)NC(=O)[C@H](CC(C)C)NC(C)=O)C(C)C)[C@@H](C)CC)C(=O)N[C@@H](CO)C(=O)N[C@H](C(=O)N[C@@H](Cc1c[nH]c2ccccc12)C(=O)N[C@@H](CO)C(=O)NC(C)(C)C(=O)N[C@@H](CCCNC(=N)N)C(=O)N[C@@H](CCCCNC(C)=O)C(=O)N[C@@H](CCCCN)C(N)=O)[C@@H](C)O)C(=O)O)C(=O)O)C(=O)O [compound 68] (Ac-LEGREKVRAK(Ac)I[Aib][Aib]EGK([Suc-X1])STWS[Aib]RK(Ac)K-NH2) | 0.88 nM | 98%

Next, values leading:

Row | EC50 | Emax | Compound
5 | 0.52 nM | 95% | CCCCCCCCCCCCCCCC(=O)N[C@@H](CCC(=O)N[C@@H](CCC(=O)N[C@@H](CCC(=O)NCCCOCCOCCOCCCNC(=O)CCC(=O)NCCCOCCOCCOCCCNC(=O)CCC(=O)NCCCOCCOCCOCCCNC(=O)CCC(=O)NCCCC[C@H](NC(=O)CNC(=O)[C@H](CCC(=O)O)NC(=O)C(C)(C)NC(=O)C(C)(C)NC(=O)[C@@H](NC(=O)[C@H](CCCCNC(C)=O)NC(=O)[C@H](C)NC(=O)[C@H](CCCNC(=N)N)NC(=O)[C@@H](NC(=O)[C@H](CCCCN)NC(=O)[C@H](CCC(=O)O)NC(=O)[C@H](CCCNC(=N)N)NC(=O)CNC(=O)[C@H](CCC(=O)O)NC(=O)[C@H](CC(C)C)NC(C)=O)C(C)C)[C@@H](C)CC)C(=O)N[C@@H](CO)C(=O)N[C@@H](CCCNC(=N)N)C(=O)N[C@@H](Cc1c[nH]c2ccccc12)C(=O)N[C@@H](CO)C(=O)NC(C)(C)C(=O)N[C@@H](CCCNC(=N)N)C(=O)N[C@@H](CCCCN)C(=O)N[C@@H](CCCCNC(C)=O)C(N)=O)C(=O)O)C(=O)O)C(=O)O [compound 64] (Ac-LEGREKVRAK(Ac)I[Aib][Aib]EGK([Suc-X1])SRWS[Aib]RKK(Ac)-NH2)
6 | 0.48 nM | 95% | CCCCCCCCCCCCCCCC(=O)N[C@@H](CCC(=O)N[C@@H](CCC(=O)N[C@@H](CCC(=O)NCCCOCCOCCOCCCNC(=O)CCC(=O)NCCCOCCOCCOCCCNC(=O)CCC(=O)NCCCOCCOCCOCCCNC(=O)CCC(=O)NCCCC[C@H](NC(=O)CNC(=O)[C@H](CCC(=O)O)NC(=O)C(C)(C)NC(=O)C(C)(C)NC(=O)[C@@H](NC(=O)[C@H](CCCCNC(C)=O)NC(=O)[C@H](C)NC(=O)[C@H](CCCNC(=N)N)NC(=O)[C@@H](NC(=O)[C@H](CCCNC(=N)N)NC(=O)[C@H](CCC(=O)O)NC(=O)[C@H](CCCNC(=N)N)NC(=O)CNC(=O)[C@H](CCC(=O)O)NC(=O)[C@H](CC(C)C)NC(C)=O)C(C)C)[C@@H](C)CC)C(=O)N[C@@H](CO)C(=O)N[C@H](C(=O)N[C@@H](Cc1c[nH]c2ccccc12)C(=O)N[C@@H](CO)C(=O)NC(C)(C)C(=O)N[C@@H](CCCNC(=N)N)C(=O)N[C@@H](CCCCN)C(=O)N[C@@H](CCCCNC(C)=O)C(N)=O)[C@@H](C)O)C(=O)O)C(=O)O)C(=O)O [compound 67] (Ac-LEGRERVRAK(Ac)I[Aib][Aib]EGK([Suc-X1])STWS[Aib]RKK(Ac)-NH2)
7 | 0.78 nM | 97% | CCCCCCCCCCCCCCCC(=O)N[C@@H](CCC(=O)N[C@@H](CCC(=O)N[C@@H](CCC(=O)NCCCOCCOCCOCCCNC(=O)CCC(=O)NCCCOCCOCCOCCCNC(=O)CCC(=O)NCCCOCCOCCOCCCNC(=O)CCC(=O)NCCCC[C@H](NC(=O)CNC(=O)[C@H](CCC(=O)O)NC(=O)C(C)(C)NC(=O)C(C)(C)NC(=O)[C@@H](NC(=O)[C@H](CCCCNC(C)=O)NC(=O)[C@H](C)NC(=O)[C@H](CCCNC(=N)N)NC(=O)[C@@H](NC(=O)[C@H](CCCCN)NC(=O)[C@H](CCC(=O)O)NC(=O)[C@H](CCCNC(=N)N)NC(=O)CNC(=O)[C@H](CCC(=O)O)NC(=O)[C@H](CC(C)C)NC(C)=O)C(C)C)[C@@H](C)CC)C(=O)N[C@@H](CO)C(=O)N[C@H](C(=O)N[C@@H](Cc1c[nH]c2ccccc12)C(=O)N[C@@H](CO)C(=O)NC(C)(C)C(=O)N[C@@H](CCCNC(=N)N)C(=O)N[C@@H](CCCCNC(C)=O)C(=O)N[C@@H](CCCNC(=N)N)C(N)=O)[C@@H](C)O)C(=O)O)C(=O)O)C(=O)O [compound 69] (Ac-LEGREKVRAK(Ac)I[Aib][Aib]EGK([Suc-X1])STWS[Aib]RK(Ac)R-NH2)
